We go through four compounds from patent US8871226B2, “Methods and compositions for the treatment and diagnosis of cancer” (Hafid Mahboubi, priority 2003, dated 2014).

Each structure is given as a SMILES string.

Experiment [1] relates to tumour of the myoma of the uterus. Briefly: Antimycotic treatment of a Candida-seropositive patient, tumour of the myoma of the uterus. Format: in vivo, human. Conditions: Patient 1, Candida rate 640; 1 tablet 2x day for two weeks, then 1 tablet a day for 30 days. An excerpt: (§1) The inventor has performed many serological tests on patients suffering from various illnesses and particularly from different types of cancer. The inventor has shown that, in many of the patients who tested positive for Candida in the serological tests, after antimycotic treatments, a full recovery was observed, with complete disappearance of the tumours in the case of the patients affected by cancer.
A patient, hospitalised, suffering from a tumour of the myoma of the uterus.
The patient was treated with Nizoral (1 tablet 2× day for two weeks, then 1 tablet a day for 30 days).

The subject of a further experiment is Prostate Cancer. Briefly: Antimycotic treatment of Candida-seropositive patients, prostate cancer. The class given is in vivo, human.
Description: as §1
Patient 2: person with Prostate Cancer.
Positive for Candida serological test (640)
The patient was treated with Orungal, 100 mg capsules, 1×1 caps a day for 1 month.
Patient 7: person with Prostate Cancer
Positive candida serological test (320).
The patient was treated with Nizoral (1 tablet 2× day for two weeks, then 1 tablet a day for 30 days.

For a further experiment, the system named is Ulcerative Colitis. Briefly: Antimycotic treatment of a Candida-seropositive patient, ulcerative colitis. Format: in vivo, human. Conditions: Patient 5, serological test 320; 100 mg 1 caps a day for 28 days. Here is the method: as §1
Patient 5: Ulcerative Colitis.
Positive serological test (320).
The patient was treated with Orungal, 100 mg 1×1 caps a day, for 28 days.

In a further experiment the test system is Breast Cancer. Briefly: Antimycotic treatment of a Candida-seropositive patient, breast cancer. Format: in vivo, human. The note with it: Patient 3, Candida serological test 320; capsule 100 mg, 1 caps a day for 60 days. Here is the method:
as §1
Patient 3: person with Breast Cancer
The patient was treated with Orungal, capsule 100 mg, 1×1 caps a day for 60 days.

In experiment [2] the test system is Cancer of the Ovary with Liver Metastasis. Briefly: Antimycotic treatment of a Candida-seropositive patient, cancer of the ovary with liver metastasis. The class given is in vivo, human. Conditions: Patient 6, Candida serological test 640; 100 mg 1 capsule a day for 30 days. Here is the method: The inventor has performed many serological tests on patients suffering from various illnesses and particularly from different types of cancer.
Patient 6: person with Cancer of the Ovary with Liver Metastasis.
The patient was treated with Diflucan, 100 mg 1 capsule a day. For 30 days

A further experiment concerns Psoriasis. Nature of the experiment: Antimycotic treatment of a Candida-seropositive patient, psoriasis. Format: in vivo, human. Conditions: Patient 4, Candida serological test 640; 100 mg 1 capsule a day for 1 month. Here is the method:
as §1
Positive Candida serological test (640)
The patient was treated with Diflucan, 100 mg 1×1 capsule a day. For 1 month.

A further experiment has as its system C. glabrata. Conditions: some other species of Candida, particularly C. glabrata; cited from earlier work.
For the next experiment, the system named is C. cruzii. Conditions: infections caused by C. cruzii; cited from earlier work.
For the next experiment, the system named is candidiasis. Conditions: in vivo; cited from earlier work.

Take `CC(=O)N1CCN(c2ccc(OCC3COC(Cn4ccnc4)(c4ccc(Cl)cc4Cl)O3)cc2)CC1` (stereo not shown) [Nizoral]: in [1], the “Result of treatment (tumour)” value was “Disappearance of the tumour at the end of the treatment”. In the experiment on Prostate Cancer (Patient 7, Candida serological test 320, 1 tablet 2x day for two weeks, then 1 tablet a day for 30 days), the Result of treatment entry is “Complete recovery”.

Take `CCC(C)n1ncn(-c2ccc(N3CCN(c4ccc(OCC5COC(Cn6cncn6)(c6ccc(Cl)cc6Cl)O5)cc4)CC3)cc2)c1=O` (stereo not shown) [Orungal]: the Result of treatment result in the experiment with Ulcerative Colitis is reported as “Complete recovery at the end of the treatment”; in the experiment with Breast Cancer, “Complete recovery at the end of the treatment”; in the experiment with Prostate Cancer (Patient 2, Candida serological test 640, 100 mg capsules, 1 caps a day for 1 month), “Complete recovery at the end of the treatment with disappearance of the tumour”.

With `OC(Cn1cncn1)(Cn1cncn1)c1ccc(F)cc1F` [Diflucan], the Result of treatment result is “Complete recovery with disappearance of the tumours” in experiment [2] and “Complete recovery at the end of the treatment” in the experiment with Psoriasis.

With `OC(Cn1cncn1)(Cn1cncn1)c1ccc(F)cc1F` [Fluconazole, fluconazole], the “Sensitivity compared with C. albicans” value with C. glabrata is “less sensitive”. The “Response of infections to treatment” value in the experiment with C. cruzii is on record as “do not respond”. In addition, the “Effectiveness in candidiasis compared with amphotericin B” value in the experiment on candidiasis is given as “as effective as amphotericin B”.
